The text below walks through data of ChEMBL document CHEMBL1125092, “Nonneurotoxic tetralin and indan analogues of 3,4-(methylenedioxy)amphetamine (MDA)” (J Med Chem, 1990).

The subject of test [1] is Rattus norvegicus. In words: Percentage of animals disrupted was determined in groups of MDMA trained rats at a dose 1.94 (umol/kg),(no of animals=10). It is filed as functional.
The test system of test [2] is Rattus norvegicus. In words: Hallucinogenic property was determined in groups of LSD trained rats and percentage of animals disrupted was reported at 5.82 (umol/kg),(number of animals = 11). The format is functional.
Test [3] relates to Rattus norvegicus. In words: Hallucinogenic property was determined in groups of LSD trained rats and percentage of animals disrupted was reported at a dose 7.77 (umol/kg),(number of animals = 15). The format is functional.
Test [4] deals with Rattus norvegicus. As to the kind of experiment: Tested for stimulus generation in rats trained to discriminate LSD from saline at a dose 9.70 (umol/kg),(number of animals = 13). The format is functional.
Test [5] has as its system Rattus norvegicus. In words: Tested for stimulus generation in rats trained to discriminate LSD from saline at a dose 5.82 (umol/kg),(number of animals = 11). The format is functional.
Test [6] deals with Rattus norvegicus. In words: Tested for stimulus generation in rats trained to discriminate LSD from saline at a dose 7.77 (umol/kg),(number of animals = 15). It is filed as functional.
Test [7] concerns Rattus norvegicus. As to the kind of experiment: Tested for stimulus generation in rats trained to discriminate +/-MDMA from saline at 7.76 (umol/kg),(number of animals = 11). The format is functional.
In test [8] the test system is Rattus norvegicus. As to the kind of experiment: Hallucinogenic property was determined in groups of LSD trained rats and percentage of animals disrupted was reported at a dose 3.88 (umol/kg),(number of animals = 10). The format is functional.
The test system of test [9] is Rattus norvegicus. As to the kind of experiment: Tested for stimulus generation in rats trained to discriminate +/-MDMA from saline at 1.94 (umol/kg),(number of animals = 10). The format is functional.
Test [10] concerns Rattus norvegicus. In words: Tested for stimulus generation in rats trained to discriminate LSD from saline at a dose 3.88 (umol/kg),(number of animals = 10). It is filed as functional.
Test [11] relates to Rattus norvegicus. As to the kind of experiment: Hallucinogenic property was determined in groups of LSD trained rats and percentage of animals disrupted was reported at a dose 9.70 (umol/kg),(number of animals = 13). The format is functional.
The test system of test [12] is Rattus norvegicus. In words: Hallucinogenic property was determined in groups of MDMA trained rats and percentage of animals disrupted was reported at a dose 3.88 (umol/kg),(number of animals = 11). It is filed as functional.
In test [13] the test system is Rattus norvegicus. As to the kind of experiment: Hallucinogenic property was determined in groups of MDMA trained rats and percentage of animals disrupted was reported at a dose 7.76 (umol/kg),(number of animals = 11). It is filed as functional.
Test [14] has as its system Rattus norvegicus. In words: Hallucinogenic property was determined in groups of MDMA trained rats and percentage of animals disrupted was reported at a dose 11.64 (umol/kg),(number of animals = 6). It is filed as functional.
Test [15] deals with Rattus norvegicus. In words: Tested for stimulus generation in rats trained to discriminate +/-MDMA from saline at 3.88 (umol/kg),(number of animals = 11). It is filed as functional.
Test [16] has as its system Rattus norvegicus. In words: Percentage of animals disrupted was determined in groups of LSD trained rats at a dose of 10.67 (umol/kg),(no of animals = 5). The format is functional.
Test [17] is described as follows: Binding affinity was determined towards serotonin uptake site in presence of [3H]paroxetine radioligand in rat hippocampal homogenate. It is filed as tissue-based, Hippocampus.
Test [18] relates to Rattus norvegicus. As to the kind of experiment: Monoamine levels in rat brain were evaluated after subcutaneous administration of 40 mg/kg for 5-HT. It is filed as functional.
Test [19] relates to Rattus norvegicus. In words: Tested for stimulus generation in rats trained to discriminate MDMA from saline at a dose 7.62 (umol/kg),(number of animals = 8). It is filed as functional.
The test system of test [20] is Rattus norvegicus. In words: Percentage of animals disrupted was determined in groups of MDMA trained rats at a dose of 0.95 (umol/kg),(no of animals = 8). The format is functional.
Test [21] has as its system Rattus norvegicus. In words: Tested for stimulus generation in rats trained to discriminate MDMA from saline at a dose 1.90 (umol/kg) (number of animals = 8). The format is functional.
Test [22] deals with Rattus norvegicus. As to the kind of experiment: Percentage of animals disrupted was determined in groups of MDMA trained rats at a dose of 3.81 (umol/kg),(no of animals = 8). It is filed as functional.
Test [23] has as its system Rattus norvegicus. In words: Monoamine levels in rat brain were evaluated after subcutaneous administration of 40 mg/kg for NE. The format is functional.
In test [24] the test system is Rattus norvegicus. As to the kind of experiment: Percentage of animals disrupted was determined in groups of MDMA trained rats at a dose of 1.90 (umol/kg),(no of animals = 8). The format is functional.
In test [25] the test system is Rattus norvegicus. In words: Percentage of animals disrupted was determined in groups of MDMA trained rats at a dose of 7.62 (umol/kg),(no of animals = 8). It is filed as functional.
The test system of test [26] is Rattus norvegicus. In words: Monoamine levels in at hippocampus were evaluated after subcutaneous administration of 40 mg/kg for NE. It is filed as functional.
In test [27] the test system is Rattus norvegicus. As to the kind of experiment: Monoamine levels in rat brain were evaluated after subcutaneous administration of 40 mg/kg for DOPAC. It is filed as functional.
A short description of test [28]: Binding affinity was determined towards serotonin uptake site in presence of [3H]paroxetine radioligand in rat brain cortical homogenate. It is filed as tissue-based.
Test [29] has as its system Rattus norvegicus. In words: Monoamine levels in rat hippocampus were evaluated after subcutaneous administration of 40 mg/kg for 5-HT. It is filed as functional.
Test [30] concerns Rattus norvegicus. In words: Monoamine levels in rat hippocampus were evaluated after subcutaneous administration of 40 mg/kg for 5-HIAA. It is filed as functional.
The species named for test [31] is Rattus norvegicus. As to the kind of experiment: Compounds were evaluated for binding of [3H]paroxetine to rat brain cortical homogenate and number of binding sites (Bmax) for serotonin. It is filed as tissue-based.
Test [32] relates to Rattus norvegicus. In words: Monoamine levels in rat brain were evaluated after subcutaneous administration of 40 mg/kg for HVA. The format is functional.
For test [33], the system named is Rattus norvegicus. In words: Monoamine levels in rat brain were evaluated after subcutaneous administration of 40 mg/kg for DA. The format is functional.
In test [34] the test system is Rattus norvegicus. In words: Monoamine levels in rat brain were evaluated after subcutaneous administration of 40 mg/kg for 5-HIAA. The format is functional.
For test [35], the species on record is Rattus norvegicus. As to the kind of experiment: Compounds were evaluated for binding of [3H]paroxetine to rat hippocampal homogenate and number of binding sites (Bmax) for serotonin. It is filed as tissue-based. To be noted: Hippocampus.
Test [36] has as its system Rattus norvegicus. In words: Tested for stimulus generation in rats trained to discriminate MDMA from saline at a dose 3.81 (umol/kg),(number of animals = 8). The format is functional.

pKd: −log10 of the molar value.

In the case of `COc1cc(C)c(OC)c2c1CC(N)CC2` (stereo unspecified), the D was determined as 20% with Rattus norvegicus [1]; 27% in the test with Rattus norvegicus [2]; 47% with Rattus norvegicus [3]; 20% with Rattus norvegicus [8]; 69% in the test with Rattus norvegicus [11]; 27% in the test with Rattus norvegicus [12]. Further, the D with Rattus norvegicus [13] stood at 27%; with Rattus norvegicus [14], 83%; in the test with Rattus norvegicus [16] it was 100%. The SDL with Rattus norvegicus [4] amounted to 0%; in the test with Rattus norvegicus [5], 38%; in the test on Rattus norvegicus [6], 13%; with Rattus norvegicus [7], 38%; with Rattus norvegicus [9], 38%; in the test on Rattus norvegicus [10], 25%. In the test on Rattus norvegicus [15], this compound came in with an SDL of 50%.

Usually pKd stands for the negative decadic logarithm of the Kd, by convention in mol/L. In the case of `CNC(C)Cc1ccc2c(c1)OCO2` (stereo unspecified) [MIDOMAFETAMINE], the pKd is 9.71 in test [17] and 9.91 in test [28]. The Monoamine level is less than 161 pg/mg in the test with Rattus norvegicus [18]; 375 pg/mg in the test with Rattus norvegicus [23]; 429 pg/mg in the test with Rattus norvegicus [26]; 212 pg/mg in the test on Rattus norvegicus [27]; less than 105 pg/mg in the test with Rattus norvegicus [29]; less than 256 pg/mg with Rattus norvegicus [30]. Further, the Monoamine level in the test on Rattus norvegicus [32] was 318 pg/mg; in the test on Rattus norvegicus [33], 151 pg/mg; in the test on Rattus norvegicus [34] it was less than 230 pg/mg. In addition, the SDL is given as 100% in the test with Rattus norvegicus [19], 25% in the test on Rattus norvegicus [21] and 75% in the test with Rattus norvegicus [36]. In addition, the D with Rattus norvegicus [20], in the test with Rattus norvegicus [22], with Rattus norvegicus [24] and in the test with Rattus norvegicus [25] was 0% each time. For the same compound, the figures for the Bmax in the test listed under Rattus norvegicus [31] and in the test listed under Rattus norvegicus [35] were less than 643 fM/g and less than 348 fM/g, respectively.
